Active and inactive are the calls of the source. No cut-off for these calls is given here.
How the values were obtained:
Aspergillus fumigatus [1] = assay: Antifungal activity against Aspergillus fumigatus isolate Af293 infected in immunosuppressed ICR mouse assessed as median survival time at 1 mg/kg, ip once daily; assay type: functional; conditions: route intraperitoneal
Aspergillus fumigatus [2] = assay: Antifungal activity against Aspergillus fumigatus isolate Af293 infected in immunosuppressed ICR mouse assessed as assessed as decrease in invasive lung disease at 1 mg/kg, ip once daily measured on day 12 by light microscopic analysis; assay type: functional, organism-based; set-up: dose 1 mg/kg
Aspergillus fumigatus [3] = assay: Antifungal activity against Aspergillus fumigatus isolate Af293 infected in immunosuppressed ICR mouse assessed as pulmonary fungal burden at 1 mg/kg, ip once daily administered 1 day post infection measured on day 8 by real-time quantitative PCR; assay type: functional; conditions: route intraperitoneal
Aspergillus fumigatus [4] = assay: Antifungal activity against Aspergillus fumigatus isolate Af293 infected in immunosuppressed ICR mouse assessed as assessed as decrease in invasive lung disease at 1 mg/kg, ip once daily measured on day 8 by light microscopic analysis; assay type: functional, organism-based; set-up: dose 1 mg/kg
Aspergillus fumigatus [5] = assay: Antifungal activity against Aspergillus fumigatus isolate Af293 infected in immunosuppressed ICR mouse assessed as decreased lung vascular damage at 1 mg/kg, ip once daily measured on day 8 by histopathological analysis; assay type: functional, organism-based; set-up: dose 1 mg/kg
Aspergillus fumigatus [6] = assay: Antifungal activity against Aspergillus fumigatus isolate Af293 infected in immunosuppressed ICR mouse assessed as conidial equivalents per gram of tissue at 1 mg/kg, ip once daily administered 1 day post infection measured on day 8 by real-time quantitative PCR; assay type: functional; conditions: route intraperitoneal
Aspergillus fumigatus [7] = assay: Antifungal activity against Aspergillus fumigatus isolate Af293 infected in immunosuppressed ICR mouse assessed as median survival time at 3 mg/kg, ip once daily; assay type: functional; conditions: route intraperitoneal
Aspergillus fumigatus [8] = assay: Antifungal activity against Aspergillus fumigatus isolate Af293 infected in immunosuppressed ICR mouse assessed as increased survival of mouse at 1 mg/kg, ip once daily until day 12; assay type: functional; conditions: route intraperitoneal
Aspergillus fumigatus [9] = assay: Antifungal activity against Aspergillus fumigatus isolate Af293 infected in immunosuppressed ICR mouse assessed as decrease in invasive lung disease at 6.25 mg/ml twice daily administered 2 days prior to infection via nebulization measured on day 8 by light microscopic analysis; assay type: functional, organism-based
Aspergillus fumigatus [10] = assay: Antifungal activity against Aspergillus fumigatus isolate Af293 infected in immunosuppressed ICR mouse assessed as decreased lung vascular damage at 1 mg/kg, ip once daily measured on day 12 by histopathological analysis; assay type: functional, organism-based; set-up: dose 1 mg/kg
Aspergillus fumigatus [11] = assay: Antifungal activity against Aspergillus fumigatus isolate Af293 infected in immunosuppressed ICR mouse assessed as increased survival of mouse at 1 mg/kg, ip once daily until day 7; assay type: functional; conditions: route intraperitoneal
Aspergillus fumigatus [12] = assay: Antifungal activity against Aspergillus fumigatus isolate Af293 infected in immunosuppressed ICR mouse assessed as median survival time at 6.25 mg/ml twice daily 2 days prior to infection via nebulization; assay type: functional
Mus musculus [13] = assay: Toxicity in immunosuppressed ICR mouse assessed as lung injury at 6.25 mg/ml twice daily administered 2 days prior to infection via nebulization; assay type: organism-based; conditions: in vivo, inhaled_or_intranasal, 48 h
Aspergillus fumigatus [14] = assay: Antifungal activity against Aspergillus fumigatus isolate Af293 infected in immunosuppressed ICR mouse assessed as increased survival of mouse at 6.25 mg/ml twice daily administered 2 days prior to infection via nebulization until day 7 (Rvb= 25%); assay type: functional
Aspergillus fumigatus [15] = assay: Antifungal activity against Aspergillus fumigatus isolate Af293 infected in immunosuppressed ICR mouse assessed as decreased lung vascular damage at 6.25 mg/ml twice daily administered 2 days prior to infection via nebulization measured on day 8 by histopathological analysis; assay type: functional, organism-based
[16] = Cmax in mouse lung; assay type: ADME, organism-based
Mus musculus [17] = assay: Toxicity in immunosuppressed ICR mouse assessed as inflammatory changes at 6.25 mg/ml twice daily administered 2 days prior to infection via nebulization; assay type: organism-based; conditions: in vivo, inhaled_or_intranasal, 48 h
Aspergillus fumigatus [18] = assay: Antifungal activity against Aspergillus fumigatus isolate Af293 infected in immunosuppressed ICR mouse assessed as conidial equivalents per gram of tissue at 6.25 mg/ml twice daily administered 2 days prior to infection via nebulization measured on day 8 by real-time quantitative PCR; assay type: functional
Aspergillus fumigatus [19] = assay: Antifungal activity against Aspergillus fumigatus isolate Af293 infected in immunosuppressed ICR mouse assessed as pulmonary fungal burden at 6.25 mg/ml twice daily administered 2 days prior to infection via nebulization measured on day 8 by real-time quantitative PCR; assay type: functional
Aspergillus fumigatus [20] = assay: Antifungal activity against Aspergillus fumigatus isolate Af293 infected in immunosuppressed ICR mouse assessed as increased survival of mouse at 6.25 mg/ml twice daily administered 2 days prior to infection via nebulization until day 12 (Rvb= 17%); assay type: functional
[21] = Cmax in mouse serum; assay type: ADME, organism-based
Aspergillus fumigatus [22] = assay: Antifungal activity against Aspergillus fumigatus isolate Af293 infected in immunosuppressed ICR mouse assessed as decrease in invasive lung disease at 6.25 mg/ml twice daily administered 2 days prior to infection via nebulization measured on day 12 by light microscopic analysis; assay type: functional, organism-based
Aspergillus fumigatus [23] = assay: Antifungal activity against Aspergillus fumigatus isolate Af293 infected in immunosuppressed ICR mouse assessed as decreased lung vascular damage at 6.25 mg/ml twice daily administered 2 days prior to infection via nebulization measured on day 12 by histopathological analysis; assay type: functional, organism-based

## C[C@@H]1[C@H](O)[C@@H](C)/C=C/C=C/C=C/C=C/C=C/C=C/C=C/[C@H](O[C@@H]2O[C@H](C)[C@@H](O)[C@H](N)[C@@H]2O)C[C@@H]2O[C@](O)(C[C@@H](O)C[C@@H](O)[C@H](O)CC[C@@H](O)C[C@@H](O)CC(=O)O[C@H]1C)C[C@H](O)[C@H]2C(=O)O [AMPHOTERICIN B]
Aspergillus fumigatus [1]
  Time: 7 days
Aspergillus fumigatus [2]
  Activity: inactive
Aspergillus fumigatus [3]
  log10cfu: 4.33
Aspergillus fumigatus [4]
  Activity: inactive
Aspergillus fumigatus [5]
  Activity: inactive
Aspergillus fumigatus [6]
  Activity: 5.26
Aspergillus fumigatus [7]
  Activity: 50%
Aspergillus fumigatus [8]
  Activity: 23%
Aspergillus fumigatus [9]
  Activity: Active
Aspergillus fumigatus [10]
  Activity: inactive
Aspergillus fumigatus [11]
  Activity: 31%

## C[C@@H](c1ncncc1F)[C@](O)(Cn1cncn1)c1ccc(F)cc1F [VORICONAZOLE]
Aspergillus fumigatus [12]
  Time: >12 days
Mus musculus [13]
  Activity: Non-toxic
Aspergillus fumigatus [14]
  Activity: 92%
Aspergillus fumigatus [15]
  Activity: Active
[16]
  Cmax: 6730 ng/g
Mus musculus [17]
  Activity: Non-toxic
Aspergillus fumigatus [18]
  Activity: 5.24
Aspergillus fumigatus [19]
  log10cfu: 4.21
Aspergillus fumigatus [20]
  Activity: 67%
[21]
  Cmax: 2320 ng/mL
Aspergillus fumigatus [22]
  Activity: Active
Aspergillus fumigatus [23]
  Activity: Active
